This is an account of results in patent US12264134B2 (Merck Sharp & Dohme LLC, priority 2018, dated 2025).

For assay [1], the target named is T1, IDO1 (Homo sapiens, UniProt P14902). As to the kind of experiment: IDO1 Cellular Assay in HeLa Cells Stimulated with IFNγ. Type of assay: cell-based.
For assay [2], the target named is T1, IDO1. As to the kind of experiment: IDO1 Human Whole blood Assay. Particulars: LPS and IFNγ stimulated, 18 h, read-out: Human Whole Blood Potency, IC50. Also on record: Human whole blood was drawn in sodium heparin coated tubes from healthy internal donors; from tissue; host or cells: human whole blood from healthy donors, stimulated with LPS and IFNγ. Type of assay: cell-based. How it is done:
IDO1Human Whole blood Assay
Compounds to be tested were serially diluted in ten 3-fold steps in DMSO starting from 10 mM. 3 μL of compound dilutions or DMSO alone were then dispensed from the dilution plate into a polypropylene 96-well assay plate containing 97 μL of RPMI medium using an Echo 555 acoustic liquid handler (Labcyte). LPS and IFNγ was prepared in RPMI medium to a 10× of final conc. (1000 ng/mL), final concentration is 100 ng/mL.
Human whole blood was drawn in sodium heparin coated tubes from healthy internal donors. 240 μL of blood was transferred to each of the wells of a v-bottom 96 well plate. 30 μL of compound was transferred from intermediate dilution plate, and incubated for 15 min. 30 μL from stimulants was then transferred to blood and mixed thoroughly. Plate was covered with breathable membrane and incubated at 37° C. for overnight (18 h).
On day 2, isotope labeled standard solutions of kynurenine and tryptophan was made in water at 10× concentration and 30 μL was added to the blood at 3 μM final concentration. The assay plates were centrifuged at 300×G for 10 min with no brake to separate plasma from red blood cells. 60 μL of plasma samples was removed without disturbing red blood cells. Plasma was diluted with RPMI in 1:1 ratio and proteins were precipitated out with two volumes of Acetonitrile. The plates were centrifuged at 4000×G for 60 min. 20 μL of supernatant was carefully transferred to a 384 well plate containing 40 μL of 0.1% formic acid in water and analyzed by LC/MS/MS.
LC/MS/MS analyses were performed using Thermo Fisher's LX4-TSQ Quantum Ultra system. This system consists of four Agilent binary high-performance liquid chromatography (HPLC) pumps and a TSQ Quantum Ultra triple quadrupole MS/MS instrument. For each sample, 5 μL were injected onto an Atlantis T3 column (2.1 mm×150 mm, 3 μm particle size) from Waters. The mobile phase gradient pumped at 0.8 mL/min was used to elute the analytes from the column at 25° C. The elution started at 0% B increasing linearly to 25% B at 6.5 min, holding at 25% for 1 min, re-equilibrating to 10 min. Mobile phase A consisted of 0.1% formic acid in water. Mobile phase B consisted of 0.1% of formic acid in acetonitrile. Data were acquired in positive mode using a HESI interface. The operational parameters for the TSQ Quantum Ultra instrument were a spray voltage of 4000 V, capillary temperature of 380° C., vaporizer temperature 400° C., shealth gas 60 arbitrary units, Aux gas 20 arbitrary units, tube lens 85 and collision gas 1.2 mTorr. SRM chromatograms of kynurenine (Q1: 209.2>Q3:94.0) and internal standard (Q1: 215.3>Q3:98.2) were collected for 90 sec. The peak area was integrated by Xcalibur Quan software. The ratios between the kynurenine generated in the reaction and 2D6-Kynurenine spiked-in internal standard were used to generate percentage inhibition and IC50 values. Compounds were titrated and IC50's were calculated by 4 parameter sigmoidal curve fitting formula.

Setting [3] is: read-out: HeLa Cell Potency, IC50.

T1 sequence (P14902 whole entry): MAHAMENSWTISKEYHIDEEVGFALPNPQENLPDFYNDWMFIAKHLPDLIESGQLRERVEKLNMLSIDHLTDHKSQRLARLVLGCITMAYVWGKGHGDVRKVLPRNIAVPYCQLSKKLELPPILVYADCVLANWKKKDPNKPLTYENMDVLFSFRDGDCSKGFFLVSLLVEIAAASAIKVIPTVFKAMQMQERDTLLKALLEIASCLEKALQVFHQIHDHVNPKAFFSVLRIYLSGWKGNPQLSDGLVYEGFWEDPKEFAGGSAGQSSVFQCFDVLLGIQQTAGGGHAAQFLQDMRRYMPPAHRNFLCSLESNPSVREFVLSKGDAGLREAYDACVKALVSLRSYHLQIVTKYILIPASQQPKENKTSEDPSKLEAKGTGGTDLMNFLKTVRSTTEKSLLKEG

The term IC50 denotes the concentration that gives 50% inhibition. In the case of `Cc1cccc(N2CCN(C(=O)Cn3nc(C(=O)N4CCC5(CCOC5=O)CC4)c4c3CCC4)CC2)c1C` [Example 146, 8-(1-{2-[4-(2,3-dimethylphenyl)piperazin-1-yl]-2-oxoethyl}-1,4,5,6-tetrahydrocyclopenta[c]pyrazole-3-carbonyl)-2-oxa-8-azaspiro[4.5]decan-1-one], the IC50 was 2.39 nM at IDO1 [1] (setting [3]) and 150 nM on IDO1 [2]. `Cc1c(Cl)ccnc1N1CCN(C(=O)Cn2nc(C(=O)N3CCC(O)CC3)c3c2CCCC3)C2(CC2)C1` [Example 408, 1-(7-(4-chloro-3-methylpyridin-2-yl)-4,7-diazaspiro[2.5]octan-4-yl)-2-(3-(4-hydroxypiperidine-1-carbonyl)-4,5,6,7-tetrahydro-1H-indazol-1-yl)ethanone]: the IC50 on IDO1 [1] (setting [3]) was found to be 4.93 nM. For `Cc1cccc(N2CCN(C(=O)Cn3nc(C(=O)N4C[C@H](O)[C@@H](O)C4)c4c3CCC4)CC2)c1C` [Example 309, 2-{3-[(3S,4S)-3,4-dihydroxypyrrolidine-1-carbonyl]-5,6-dihydrocyclopenta[c]pyrazol-1(4H)-yl}-1-[4-(2,3-dimethylphenyl)piperazin-1-yl]ethan-1-one], the IC50 on IDO1 [1] (setting [3]) was 410 nM. As for `Cc1cccc(N2CCN(C(=O)Cn3nc(C(=O)N4CCC(N)CC4)c4c3CCC4)CC2)c1C` [Example 200, 2-[3-(4-aminopiperidine-1-carbonyl)-5,6-dihydrocyclopenta[c]pyrazol-1(4H)-yl]-1-[4-(2,3-dimethylphenyl)piperazin-1-yl]ethan-1-one], the IC50 at IDO1 [1] (setting [3]) was found to be 26.6 nM.

On to `Cc1cccc(N2CCN(C(=O)Cn3nc(C(=O)N4C[C@@H](C)O[C@@H](C)C4)c4c3CCC4)CC2)c1` [Example 488, 2-(3-((2S,6R)-2,6-dimethylmorpholine-4-carbonyl)-5,6-dihydrocyclopenta [c]pyrazol-1(4H)-yl)-1-(4-(m-tolyl)piperazin-1-yl)ethanone], for which, at IDO1 [1] (setting [3]), the half-inhibitory concentration (IC50) turned out to be 83.8 nM. Still for that read-out and setting: next, `Cc1cccc(N2CCN(C(=O)Cn3nc(C(=O)N4CCC(O)(CO)CC4)c4c3CCCC4)CC2)c1C` [Example 455, 1-(4-(2,3-dimethylphenyl)piperazin-1-yl)-2-(3-(4-hydroxy-4-(hydroxymethyl)piperidine-1-carbonyl)-4,5,6,7-tetrahydro-1H-indazol-1-yl)ethanone]: 3.32 nM; `Cc1cccc(N2CCN(C(=O)Cn3nc(C(=O)N4CCNCC4)c4c3CCC4)CC2)c1C` [Example 195, 1-[4-(2,3-dimethylphenyl)piperazin-1-yl]-2-[3-(piperazin-1-carbonyl)-5,6-dihydrocyclopenta[c]pyrazol-1(4H)-yl]ethan-1-one]: 189 nM. Still for that read-out and setting: next, `Cc1cccc(N2CCN(C(=O)Cn3nc(C(=O)N4CC[C@H](O)[C@H](F)C4)c4c3C[C@H]3C[C@@H]43)[C@H]3CCC[C@@H]32)c1C` (racemic) [Example 327, 1-[rac-(4aS,7aS or 4aR,7aR)-1-(2,3-dimethylphenyl)-3,4a,5,6,7,7a-hexahydro-2H-cyclopenta[b]pyrazin-4-yl]-2-[(2R,4R)-9-[(3R,4S)-3-fluoro-4-hydroxy-piperidine-1-carbonyl]-7,8-diazatricyclo[4.3.0.02,4]nona-1(6),8-dien-7-yl]ethanone]: 17.1 nM; `Cc1cccc(N2CCN(C(=O)Cn3nc(C(=O)N4CCN(C(=O)CO)C[C@H]4C)c4c3CCC4)CC2)c1C` [Example 402, (R)-1-(4-(2,3-dimethylphenyl)piperazin-1-yl)-2-(3-(4-(2-hydroxyacetyl)-2-methylpiperazine-1-carbonyl)-5,6-dihydrocyclopenta[c]pyrazol-1(4H)-yl)ethanone]: 3.58 nM.

Regarding `Cc1cccc(N2CCN(C(=O)Cn3nc(C(=O)N4CCC(O)C(CO)C4)c4c3CCC4)CC2)c1C` (centres unmarked) [Example 148, 1-[4-(2,3-dimethylphenyl)piperazin-1-yl]-2-{3-[4-hydroxy-3-(hydroxymethyl)piperidine-1-carbonyl]-5,6-dihydrocyclopenta[c]pyrazol-1(4H)-yl}ethan-1-one], at IDO1 [1] (setting [3]), the IC50 was 7.98 nM.

Regarding `Cc1cccc(N2CCN(C(=O)Cn3nc(C(=O)N4CCC(O)(c5ccccc5)CC4)c4c3CCC4)CC2)c1C` [Example 111, 1-[4-(2,3-dimethylphenyl)piperazin-1-yl]-2-[3-(4-hydroxy-4-phenylpiperidine-1-carbonyl)-5,6-dihydrocyclopenta[c]pyrazol-1(4H)-yl]ethan-1-one], on IDO1 [1] (setting [3]), the concentration for half-maximal inhibition (IC50) amounted to 28.6 nM. The same measure, in the same setting: next, `Cc1c(F)cccc1N1CCN(C(=O)Cn2nc(C(=O)N3CCC(O)CC3)c3c2CCC3)CC1` [Example 483, 1-(4-(3-fluoro-2-methylphenyl)piperazin-1-yl)-2-(3-(4-hydroxypiperidine-1-carbonyl)-5,6-dihydrocyclopenta[c]pyrazol-1(4H)-yl) ethanone]: 41.6 nM. For the compound `Cc1cccc(N2CCN(C(=O)Cn3nc(C(=O)N4CCC(=O)CC4)c4c3C[C@H]3C[C@@H]43)CC2)c1C` [Example 265, 1-[(3bR,4aR)-1-{2-[4-(2,3-dimethylphenyl)piperazin-1-yl]-2-oxoethyl}-3b,4,4a,5-tetrahydro-1H-cyclopropa[3,4]cyclopenta[1,2-c]pyrazole-3-carbonyl]piperidin-4-one], the IC50 against IDO1 [1] (HeLa Cell Potency, IC50 (nM)) was < 0.51 nM. Turning to `C[C@@H]1CN(C(=O)c2nn(CC(=O)N3CCN(c4cccc5c4CC5)CC3)c3c2CCC3)C[C@H](C)O1` [Example 446, 1-(4-(bicyclo[4.2.0]octa-1(6),2,4-trien-2-yl)piperazin-1-yl)-2-(3-((2R,6S)-2,6-dimethylmorpholine-4-carbonyl)-5,6-dihydrocyclopenta[c]pyrazol-1(4H)-yl)ethanone], the IC50 at IDO1 [1] (setting [3]) is 206 nM. Still for that read-out and setting: the same measure for `Cc1cccc(N2CCN(C(=O)Cn3nc(C(=O)N4CCC(F)(CN)CC4)c4c3CCC4)CC2)c1C` [Example 178, 2-{3-[4-(aminomethyl)-4-fluoropiperidine-1-carbonyl]-5,6-dihydrocyclopenta[c]pyrazol-1(4H)-yl}-1-[4-(2,3-dimethylphenyl)piperazin-1-yl]ethan-1-one]: 16.4 nM; for `Cc1cc(Cl)ccc1N1CCN(C(=O)Cn2nc(C(=O)N3C[C@@H](C)O[C@@H](C)C3)c3c2CCC3)CC1` [Example 43, 1-[4-(4-chloro-2-methylphenyl)piperazin-1-yl]-2-{3-[(2R,6S)-2,6-dimethylmorpholine-4-carbonyl]-5,6-dihydrocyclopenta[c]pyrazol-1(4H)-yl}ethan-1-one]: 34.8 nM. Still for that read-out and setting: the same measure for `Cc1cccc(N2CCN(C(=O)Cn3nc(C(=O)N4CCC(C(F)F)C4)c4c3C[C@H]3C[C@@H]43)CC2)c1C` (stereo partly drawn) [Example 233, 2-{(3bR,4aR)-3-[3-(difluoromethyl)pyrrolidine-1-carbonyl]-3b,4,4a,5-tetrahydro-1H-cyclopropa[3,4]cyclopenta[1,2-c]pyrazol-1-yl}-1-[4-(2,3-dimethylphenyl)piperazin-1-yl]ethan-1-one]: 2.33 nM; for `Cc1cccc(N2CCN(C(=O)Cn3nc(C(=O)N4CCC(O)(CF)C4)c4c3CCC4)CC2)c1C` (single isomer, unassigned) [Example 482, (R or S)-1-(4-(2,3-dimethylphenyl)piperazin-1-yl)-2-(3-(3-(fluoromethyl)-3-hydroxypyrrolidine-1-carbonyl)-5,6-dihydro-cyclopenta[c]pyrazol-1(4H)-yl)ethanone]: 22.3 nM; for `Cc1cccc(N2CCN(C(=O)Cn3nc(C(=O)N4CCC5(CC4)CC5CO)c4c3CCC4)CC2)c1C` (centres unmarked) [Example 143, 1-[4-(2,3-dimethylphenyl)piperazin-1-yl]-2-{3-[1-(hydroxymethyl)-6-azaspiro[2.5]octane-6-carbonyl]-5,6-dihydrocyclopenta[c]pyrazol-1(4H)-yl}ethan-1-one]: 1.9 nM.
